From US12296053B2, “Nanomaterials comprising triols” (Beam Therapeutics Inc., priority 2022, dated 2025)

Experiments:
[1] = Encapsulation efficiency of LNP preparations (Ribogreen assay; Qubit, unlysed and lysed LNPs); assay type: physicochemical; conditions: LNP preparation with the ionizable lipid, ABE mRNA:sgRNA 1:1, except 7-1, 7-2, 7-6, 7-10 (unlysed and lysed LNPs, Qubit)
Procedure: (§1) Lipid nanoparticle components were dissolved in 100% ethanol at specified lipid component molar ratios. mRNA encoding an adenine base editor and a chemically-modified sgRNA was dissolved at a mass ratio of 1:1 in 50 mM citrate, pH 4.0, resulting in a concentration of NA cargo of approximately 0.1 mg/mL.
(§2) LNP preparations were formulated with molar ratios of 47.5% Ionizable Lipid: 40% Cholesterol: 2.5% PEG2000-DMG: 10% DSPC total lipid to NA molar ratio of 6 to 12.
(§3) LNP preparations were formed by microfluidic mixing of the lipid and NA solutions using Precision Nanosystems NanoAssemblr Ignite series Instruments, according to the manufacturer's protocol.
With the exception of LNPs comprising ionizable lipids 7-1, 7-2, 7-6, and 7-10, RNA concentration and encapsulation efficiency were determined by Ribogreen assay (BioTek Synergy LX plate reader). For LNPs comprising ionizable lipids 7-1, 7-2, 7-6, and 7-10, RNA concentration was determined by Qubit microRNA kit (for siRNA) or HS RNA kit (for mRNA) per manufacturer's instructions, and encapsulation efficiency was determined by measuring unlysed and lysed LNPs.

[2] = LNP hydrodynamic diameter and polydispersity index by dynamic light scattering (DLS); assay type: physicochemical; conditions: for Diameter (nm): hydrodynamic diameter of the LNP preparation with the ionizable lipid; for PDI: polydispersity index of the LNP preparation with the ionizable lipid
Procedure: (§4) A 3:1 ratio of aqueous to organic solvent was maintained during mixing using differential flow rates. After mixing, LNP preparations were collected and diluted in TBS (approximately 7:1 v/v), and further buffer exchange was conducted using dialysis in TBS at 4° C. for 8 to 24 hours against a 20 kDa filter. After this initial dialysis, each individual LNP preparation was characterized via dynamic light scattering (DLS) to measure size and polydispersity. pKa of a subpopulation of LNP preparations was measured via TNS assay.
DLS-LNP preparation hydrodynamic diameter and polydispersity index (PDI) was measured using high throughput dynamic light scattering (DLS) (DynaPro plate reader II, Wyatt). LNP preparations were diluted 1×PBS to an appropriate concentration and analyzed.

[3] = system: ALAS1 target site; assay: Base editing in liver by LNP-delivered ABE mRNA and sgRNA, targeted deep sequencing; assay type: in vivo; conditions: LNP with the ionizable lipid, ABE mRNA + sgRNA targeting ALAS1 1:1; tail vein injection, Balb/c mice; 0.05 mg/kg; tissues four to six days post-dose
Procedure: as §1, §2, §3, §4
Male Balb/C mice aged approximately 8-12 weeks were used in the experiments described herein. […]
Age-matched mice were also used to administer vehicle (1×TBS) via tail vein injection as a control. Four to six days post-dose, tissues including liver, spleen, and bone marrow were collected. Base editing was determined by performing targeted deep sequencing analysis at the ALAS1 target site using extracted genomic DNA. Genomic DNA was isolated and fragmented and adapter-ligated using the Nextera DNA Flex Library Prep Kit (Illumina) using the 96-well plate Nextera indexing primers (Illumina), according to the manufacturer's instructions. Library size and concentration was confirmed by Fragment Analyzer (Agilent) and analyzed for whole genome sequencing using an Illumina HiSeq.

CC/C=C\CCCCOC(CCC(=O)OCC(COC(=O)CCCCCC(=O)OCCC(CCCCC)CCCCC)COC(=O)CCC(CCCCCC)OC(=O)NCCN1CCCC1)OCCCC/C=C\CC (centres unmarked) [Compound 7-13, 1-(3-((4,4-bis(((Z)-oct-5-en-1-yl)oxy)butanoyl)oxy)-2-(((4-(((2-(pyrrolidin-1-yl)ethyl)carbamoyl)oxy)decanoyl)oxy)methyl)propyl) 7-(3-pentyloctyl) heptanedioate]
Encapsulation Efficiency (%) [1]: 97.3%
Diameter (nm) [2]: 52.45 nm
PDI [2]: 0.04
% Editing in Liver (0.05 mpk) [3]: 2.2%

CCCCCCCCOC(CCC(=O)OCC(COC(=O)CCCCC(=O)OCCC(CCCCCC)CCCCCC)COC(=O)CCC(CCCCCC)OC(=O)NCCN1CCCC1)OCCCCCCCC (centres unmarked) [Compound 7-17, 3-((4,4-bis(octyloxy)butanoyl)oxy)-2-(((4-(((2-(pyrrolidin-1-yl)ethyl)carbamoyl)oxy)decanoyl)oxy)methyl)propyl (3-hexylnonyl) adipate]
Encapsulation Efficiency (%) [1]: 98.5%
Diameter (nm) [2]: 57.11 nm
PDI [2]: 0.09
% Editing in Liver (0.05 mpk) [3]: 1.0%

CC/C=C\CCCCOC(CCC(=O)OCC(COC(=O)CCCCCCOC(=O)C(CCCC)CCCCCC)COC(=O)CCC(CCCCCCCC)OC(=O)NCCN1CCCC1)OCCCC/C=C\CC (centres unmarked) [Compound 7-51, 3-((4,4-bis(((Z)-oct-5-en-1-yl)oxy)butanoyl)oxy)-2-(((7-((2-butyloctanoyl)oxy)heptanoyl)oxy)methyl)propyl 4-(((2-(pyrrolidin-1-yl)ethyl)carbamoyl)oxy)dodecanoate]
Encapsulation Efficiency (%) [1]: 96.6%
Diameter (nm) [2]: 51.15 nm
PDI [2]: 0.08
% Editing in Liver (0.05 mpk) [3]: 1.0%

CC/C=C\CCCCOC(CCC(=O)OCC(COC(=O)CCCCCCOC(=O)C(CCCC)CCCCCC)COC(=O)CCC(CCCCCCC)OC(=O)NCCN1CCCC1)OCCCC/C=C\CC (centres unmarked) [Compound 7-50, 3-((4,4-bis(((Z)-oct-5-en-1-yl)oxy)butanoyl)oxy)-2-(((7-((2-butyloctanoyl)oxy)heptanoyl)oxy)methyl)propyl 4-(((2-(pyrrolidin-1-yl)ethyl)carbamoyl)oxy)undecanoate]
Encapsulation Efficiency (%) [1]: 96.6%
Diameter (nm) [2]: 53.45 nm
PDI [2]: 0.09
% Editing in Liver (0.05 mpk) [3]: 4.0%

CC/C=C\CCCCOC(CCC(=O)OCC(COC(=O)CCCCCCOC(=O)C(CCCC)CCCCCC)COC(=O)CCC(CCCCCC)OC(=O)NCCN(C)C)OCCCC/C=C\CC (centres unmarked) [Compound 7-40, 3-((4,4-bis(((Z)-oct-5-en-1-yl)oxy)butanoyl)oxy)-2-(((7-((2-butyloctanoyl)oxy)heptanoyl)oxy)methyl)propyl 4-(((2-(dimethylamino)ethyl)carbamoyl)oxy)decanoate]
Encapsulation Efficiency (%) [1]: 96.8%
Diameter (nm) [2]: 54.1 nm
PDI [2]: 0.09
% Editing in Liver (0.05 mpk) [3]: 1.9%

C=CCCCCCC(CCCCCC=C)OC(=O)CCCCCC(=O)OCC(COC(=O)CCC(CCCCC)OC(=O)NCCN1CCCC1)COC(=O)CCC(OCCCC/C=C\CC)OCCCC/C=C\CC (centres unmarked) [Compound 7-33, 1-(3-((4,4-bis(((Z)-oct-5-en-1-yl)oxy)butanoyl)oxy)-2-(((4-(((2-(pyrrolidin-1-yl)ethyl)carbamoyl)oxy)nonanoyl)oxy)methyl)propyl) 7-(pentadeca-1,14-dien-8-yl) heptanedioate]
Encapsulation Efficiency (%) [1]: 96.7%
Diameter (nm) [2]: 64.85 nm
PDI [2]: 0.11
% Editing in Liver (0.05 mpk) [3]: 6.5%

CC/C=C\CCCCOC(CCC(=O)OCC(COC(=O)CCCCCCOC(=O)C(CCCC)CCCCCC)COC(=O)CCC(CCCCCC)OC(=O)OCC1CCCN(CC)C1)OCCCC/C=C\CC (centres unmarked) [Compound 7-46, 3-((4,4-bis(((Z)-oct-5-en-1-yl)oxy)butanoyl)oxy)-2-(((7-((2-butyloctanoyl)oxy)heptanoyl)oxy)methyl)propyl 4-((((1-ethylpiperidin-3-yl)methoxy)carbonyl)oxy)decanoate]
Encapsulation Efficiency (%) [1]: 93.7%
Diameter (nm) [2]: 82.35 nm
PDI [2]: 0.13
% Editing in Liver (0.05 mpk) [3]: 1.1%

C=CCCCCCC(CCCCCC=C)COC(=O)CCCCC(=O)OCC(COC(=O)CCC(CCCCCC)OC(=O)NCCN1CCCC1)COC(=O)CCC(OCCCC/C=C\CC)OCCCC/C=C\CC (centres unmarked) [Compound 7-39, 3-((4,4-bis(((Z)-oct-5-en-1-yl)oxy)butanoyl)oxy)-2-(((4-(((2-(pyrrolidin-1-yl)ethyl)carbamoyl)oxy)decanoyl)oxy)methyl)propyl (2-(hept-6-en-1-yl)non-8-en-1-yl) adipate]
Encapsulation Efficiency (%) [1]: 97.4%
Diameter (nm) [2]: 53.4 nm
PDI [2]: 0.08
% Editing in Liver (0.05 mpk) [3]: 1.4%

CC/C=C\CCCCOC(CCC(=O)OCC(COC(=O)CCCCCCCOC(=O)C(CCCC)CCCCCC)COC(=O)OCC(CCCCCC)OC(=O)NCCN1CCCC1)OCCCC/C=C\CC (centres unmarked) [Compound 7-8, 12-(((4,4-bis(((Z)-oct-5-en-1-yl)oxy)butanoyl)oxy)methyl)-6-hexyl-4,9,15-trioxo-1-(pyrrolidin-1-yl)-5,8,10,14-tetraoxa-3-azadocosan-22-yl 2-butyloctanoate]
Encapsulation Efficiency (%) [1]: 95.5%
Diameter (nm) [2]: 62.8 nm
PDI [2]: 0.07
% Editing in Liver (0.05 mpk) [3]: 14.8%

CC/C=C\CCCCOC(CCC(=O)OCC(COC(=O)CCCCCCOC(=O)C(CCCC)CCCCCC)COC(=O)CCC(CCCCCC)OC(=O)NCCCN(CC)CC)OCCCC/C=C\CC (centres unmarked) [Compound 7-42, 3-((4,4-bis(((Z)-oct-5-en-1-yl)oxy)butanoyl)oxy)-2-(((7-((2-butyloctanoyl)oxy)heptanoyl)oxy)methyl)propyl 4-(((3-(diethylamino)propyl)carbamoyl)oxy)decanoate]
Encapsulation Efficiency (%) [1]: 97.2%
Diameter (nm) [2]: 74 nm
PDI [2]: 0.13
% Editing in Liver (0.05 mpk) [3]: 7.3%

CC/C=C\CCCCOC(CCC(=O)OCC(COC(=O)CCCCCCOC(=O)C(CCCC)CCCCCC)COC(=O)CCC(CCCCCC)OC(=O)OCCCN(CC)CC)OCCCC/C=C\CC (centres unmarked) [Compound 7-45, 3-((4,4-bis(((Z)-oct-5-en-1-yl)oxy)butanoyl)oxy)-2-(((7-((2-butyloctanoyl)oxy)heptanoyl)oxy)methyl)propyl 4-(((3-(diethylamino)propoxy)carbonyl)oxy)decanoate]
Encapsulation Efficiency (%) [1]: 93.4%
Diameter (nm) [2]: 81.8 nm
PDI [2]: 0.13
% Editing in Liver (0.05 mpk) [3]: 3.4%

CC/C=C\CCCCOC(CCC(=O)OCC(COC(=O)CCCCCC(=O)OCCC(CCCCC)CCCCC)COC(=O)CCC(CCCCC)OC(=O)NCCN1CCCC1)OCCCC/C=C\CC (centres unmarked) [Compound 7-27, 1-(3-((4,4-bis(((Z)-oct-5-en-1-yl)oxy)butanoyl)oxy)-2-(((4-(((2-(pyrrolidin-1-yl)ethyl)carbamoyl)oxy)nonanoyl)oxy)methyl)propyl) 7-(3-pentyloctyl) heptanedioate]
Encapsulation Efficiency (%) [1]: 96.9%
Diameter (nm) [2]: 61.25 nm
PDI [2]: 0.06
% Editing in Liver (0.05 mpk) [3]: 5.3%

CC/C=C\CCCCOC(CCC(=O)OCC(COC(=O)CCCCCC(=O)OCCC(CCCCC)CCCCC)COC(=O)CCC(C)OC(=O)NCCN1CCCC1)OCCCC/C=C\CC (centres unmarked) [Compound 7-30, 1-(3-((4,4-bis(((Z)-oct-5-en-1-yl)oxy)butanoyl)oxy)-2-(((4-(((2-(pyrrolidin-1-yl)ethyl)carbamoyl)oxy)pentanoyl)oxy)methyl)propyl) 7-(3-pentyloctyl) heptanedioate]
Encapsulation Efficiency (%) [1]: 98.3%
Diameter (nm) [2]: 71.40 nm
PDI [2]: 0.10
% Editing in Liver (0.05 mpk) [3]: 0.8%

CCCCCCCCOC(CCC(=O)OCC(COC(=O)CCCCCCOC(=O)C(CCCC)CCCCCC)COC(=O)CCC(CCCCCC)OC(=O)NCCN1CCCC1)OCCCCCCCC (centres unmarked) [Compound 7-11, 3-((4,4-bis(octyloxy)butanoyl)oxy)-2-(((7-((2-butyloctanoyl)oxy)heptanoyl)oxy)methyl)propyl 4-(((2-(pyrrolidin-1-yl)ethyl)carbamoyl)oxy)decanoate]
Encapsulation Efficiency (%) [1]: 99.1%
Diameter (nm) [2]: 68.00 nm
PDI [2]: 0.10
% Editing in Liver (0.05 mpk) [3]: 13.2%
